# Assay results taken from patent US9133165B2, “Sulfonic acid salts of heterocyclylamide-substituted imidazoles” (AICURIS GMBH & CO. KG, priority 2011, dated 2015).
# Read-outs that look alike come from different tables or passages of the source.
# Columns and labels:
# Hygroscopy = format: physicochemical; conditions: approximately 46% relative atmospheric humidity and 24° C., storage time approximately 2 days
# Procedure: By storing the salt of Example 1 in pure form at approximately 46% relative atmospheric humidity and 24° C., the hygroscopy of the salts according to the invention was measured.
# [1] = Solubility under simulated conditions in the human stomach; format: physicochemical; conditions: aqueous sodium chloride solution (0.2% by weight), pH 1.2 with hydrochloric acid, stirred for 5 hours
# Procedure: The samples were then treated as described above, and the amount of free base in solution is determined by means of HPLC.
# HCMV AD 169 RV-HG = assay: HCMV fluorescence reduction test; format: cell-based, human cytomegalovirus
# Procedure: The test compounds are used as 50 millimolar (mM) solutions in dimethyl sulfoxide (DMSO). As reference compounds, e.g., Ganciclovir®, Foscarnet®, Cidofovir® or else the compound of Example 9A can be used. One day before the start of the test, 1.5×10^4 human foreskin fibroblasts (NHDF cells)/well are sowed in 200 μl of cell culture medium in the wells B2-G11 of 96-well plates (black with a translucent bottom). The wells at the edge position of each 96-well plate are filled only with 200 μl of medium to avoid edge effects. On the day of the test, the cell culture medium is suctioned off from the wells B2-G11 of each 96-well plate and replaced by 100 μl of virus suspension (multiplicity of infection (MOI): 0.1-0.2). The virus that is used is a recombinant HCMV, which has integrated an expression cassette for the green fluorescence protein (GFP) in the virus genome (HCMV AD 169 RV-HG, E. M. Borst, K. Wagner, A. Binz, B. Sodeik, and M. Messerle, 2008, J. Virol. 82: 2065-2078). After an incubation time of 2 hours at 37° C. and 5% CO2, the virus inoculate is suctioned off, and all wells except for the wells in Column 3 are filled with 200 μl of cell culture medium. Column 2 is not further treated and serves as a virus control. The wells in Column 3 are filled in each case in double determination with 300 μl of test substance (diluted in cell culture medium). The concentration of the respective antiviral substance in Column 3 is ˜ the 27× concentration of the EC50 value that is expected in each case. The test substance in Column 3 is diluted in 8 steps 1:3 over the 96-well plate by in each case 100 μl of a column being transferred into the right column in each case—and being mixed there with the existing 200 μl of cell culture medium. […] Then, the GFP intensity of each well of a 96-well plate is determined by means of a fluorescence reading device (FluoBox; Bayer Technology Services GmbH; Filter settings: GFP, Ex 480 nm, Em 520 nm). The EC50 of an anti-HCMV substance can be determined from the thus obtained measurement values: […]
# [2] = Solubility studies in H2O; format: physicochemical; conditions: water, thermodynamic from solid, 20 mg in 1 ml of H2O, stirred overnight at 25° C., filtrate analyzed by HPLC
# Procedure: 1 ml of H2O each is added, and the HPLC glasses are sealed. The suspensions that are produced are stirred overnight at 25° C. To estimate the amount of dissolved substance, the suspensions are filtered via pipette microfilters, and the filtrates that are obtained are diluted 1:4 and analyzed by means of HPLC. The HPLC analysis was carried out on a […] Luna RP18 (100A)-column with the following dimensions: 5 μm 50×4.6 mm with use of an isocratic mixture of acetonitrile and H2O+0.1% TFA in the ratio 3:7.
# [3] = Human betaherpesvirus 5, AD169, NHDF, 168 h, read-out: EC50 (GFP-RA), virus strain AD169 RV-HG in NHDF cells, 7 days, GFP fluorescence
SMILES,weight increase (hygroscopy) (Hygroscopy),Amount of Dissolved Free Base [1],"EC50 (HCMV AD 169 RV-HG; read-out: EC50 (GFP-RA), virus strain AD169 RV-HG in NHDF cells, 7 days, GFP fluorescence, dimesylate)",solubility [2],EC50 (HCMV AD 169 RV-HG; [3])
"CS(=O)(=O)O.CS(=O)(=O)O.Cc1ccc(N2CCN(C(=O)c3nc(NC(=O)Nc4ccc(OC(F)(F)F)cc4)cn3C)CC2)nc1 [Example 1, N-(1-Methyl-2-{[4-(5-methylpyridin-2-yl)piperazin-1-yl]-carbonyl}-1H-imidazol-4-yl)-N′-[4-trifluoromethoxyphenyl]urea dimesylate]",less than 0.11%,0.103 mg/mL,1.8 nM,> 9700 µg/mL,–
"Cc1ccc(N2CCN(C(=O)c3nc(NC(=O)Nc4ccc(OC(F)(F)F)cc4)cn3C)CC2)nc1 [Example 9A, N-(1-Methyl-2-{[4-(5-methylpyridin-2-yl)piperazin-1-yl]carbonyl}-1H-imidazol-4-yl)-N′-[4-(trifluoromethoxy)phenyl]urea]",–,0.065 mg/mL,–,4 µg/mL,1.5 nM
"Nc1nc(O)c2ncn(COC(CO)CO)c2n1 [Ganciclovir, reference compound]",–,–,–,–,3200 nM
